As a reminder, the IC50 is the point on the concentration scale where inhibition reaches its midpoint.

Chain of USP30 (Q70CQ3 57-517): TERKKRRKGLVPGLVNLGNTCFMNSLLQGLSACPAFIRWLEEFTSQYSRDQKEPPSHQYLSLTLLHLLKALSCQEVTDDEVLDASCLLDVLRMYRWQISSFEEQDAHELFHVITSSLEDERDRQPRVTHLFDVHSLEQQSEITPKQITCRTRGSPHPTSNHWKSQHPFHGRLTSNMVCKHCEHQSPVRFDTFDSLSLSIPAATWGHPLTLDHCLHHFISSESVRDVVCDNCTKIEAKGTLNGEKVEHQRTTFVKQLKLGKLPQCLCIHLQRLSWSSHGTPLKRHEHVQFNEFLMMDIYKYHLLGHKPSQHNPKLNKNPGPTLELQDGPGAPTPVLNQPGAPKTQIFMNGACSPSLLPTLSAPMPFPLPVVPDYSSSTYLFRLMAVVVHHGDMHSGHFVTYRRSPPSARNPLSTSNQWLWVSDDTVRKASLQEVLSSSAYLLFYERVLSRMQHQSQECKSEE

This test deals with USP30 (Homo sapiens (Human), UniProt Q70CQ3). Description: USP30 biochemical FP or FI IC50 assay. Particulars: read-out: IC50 range. As to the method:
In Vitro USP30 FP Inhibition Assay
USP30 Biochemical IC50 Assay
(§1) Dilution plates were prepared at 21 times the final concentration (2100 μM for a final concentration of 100 μM) in 50% DMSO in a 96-well polypropylene V-bottom plate (Greiner #651201). A typical 8-point dilution series would be 100, 30, 10, 3, 1, 0.3, 0.1, 0.03 μM final. Reactions were performed in duplicate in black 384 well plates (small volume, Greiner 784076) in a final reaction volume of 21 μl. Either 1 μl of 50% DMSO or diluted compound was added to the plate. USP30 was diluted in reaction buffer (40 mM Tris, pH 7.5, 0.005% Tween 20, 0.5 mg/ml BSA, 5 mM—beta-mercaptoethanol) to the equivalent of 0.05 µl/well and 10 μl of diluted USP30 was added to the compound. Enzyme and compound were incubated for 30 min at room temp. Reactions were initiated by the addition of 50 nM of TAMRA labelled peptide linked to ubiquitin via an iso-peptide bond as fluorescence polarisation substrate. Reactions were read immediately after addition of substrate and following a 2 hr incubation at room temperature. Readings were performed on a Pherastar Plus (BMG Labtech). λ Excitation 540 nm; λ Emission 590 nm.
In Vitro USP30 FI Inhibition Assay
USP30 Biochemical Fluorescence Intensity IC50 Assay
as §1, with “0.001 μl/well” for “0.05 µl/well”, “Ubiquitin-Rhodamine 110 (U-555; Boston Biochem) at a final concentration” for “50 nM”, “100 nM.” for “TAMRA labelled peptide linked to ubiquitin via an iso-peptide bond as fluorescence polarisation substrate.”, “h” for “hr”, “487” for “540”, “535” for “590”
For the substance “(R)-3-(1H-benzo [d]imidazol-2-yl)- N-(1-cyano pyrrolidin-3- yl)azetidine-1- carboxamide [Example 134]”, the IC50 was in the range of 100 to 1000 nM. Take “(R)-N-(1-cyano pyrrolidin-3-yl)- 3-phenoxy azetidine- 1-carboxamide [Example 133]”: the IC50 lay in the range of 100 to 1000 nM.

For “N-(1-cyanopyrrolidin-3-yl)-6-(4- phenoxypiperidin-1- yl)nicolinamide [Example 22]”, the IC50 is 100 to 1000 nM. “N-((R)-1-cyano pyrrolidin-3-yl)- ((2S,6R)-2,6- dimethyl morpholino)- 5-fluoroiso nicotinamide [Example 140]”: the IC50 was 100 to 1000 nM. For “rac-(3aR, 6aR)-1-(3-phenyl-1II- pyrazole-5- carbonyl)hexahydropyrrolo[3,4- b]pyrrole-5(1H)-carbonitrile [Example 52]” the value was 100 to 1000 nM.

(Values after patent US11390584B2, “1-cyano-pyrrolidine compounds as USP30 inhibitors” (Mission Therapeutics Limited, priority 2015, dated 2022).)
